For 16 compounds, EC50 results are on record in patent US12264173B2 (GILEAD SCIENCES, INC., priority 2020, dated 2025).

Molecules are shown by their SMILES. Where two headings read alike, the source gives them in different places.

What all share (type): cell-based
The subject of one assay is DENV2 replicon. Put plainly: DENV-2 Huh-7 Rep EC50 (replicon luminescence). Here is the method: In 384 well plates (Greiner, Cat #781091), compounds were acoustically transferred at 200 nl per well in a 8 compound (4 replicates) or 40 compound dose response format (3 replicates). For all plates tested, Balapiravir, GS-5734 and NITD008 were included as positive inhibition controls alongside 0% inhibition, DMSO-only negative control wells. Following compound addition, Huh-7 cells containing the DENV2 replicon construct were harvested following standard cell culture procedures and were adjusted to a concentration of 1.25E5 cells/mL in cell culture media composed of cDMEM without genticin. 40 μL of the cell stock was then added to each well for a final cell density of 5,000 cells/well. Cell and compound mixtures were incubated at 37° C./5% CO2 for 48 hours. Prior to harvesting cells, EnduRen Live Cell Substrate (Promega, Cat #E6481) was prepared by suspending 3.4 mg into 100 uL of DMSO to generate a 60 mM stock solution. The stock solution was then diluted 1:200 in pre-warmed cDMEM and 10 uL of this diluted solution was added to each well of the 384 well plates. Plates were then centrifuged at 500 rpm briefly and were placed on a plate shaker for 2 min. Following mixing, plates were incubated at […] for 1.5 hours prior to measuring luminescence on an Envision luminometer.

The subject of a further assay is HRV16. As to the kind of experiment: HRV16 HeLa EC50 (cytopathic effect in H1-HeLa cells). In outline: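 Read-out is luminescent cell viability (CellTiter-Glo) after 96 h of infection at 33 °C, scaled between uninfected and infected-untreated wells. Before infection with titrated virus, compounds went onto H1-HeLa cells as triplicate 3-fold dilution series.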
The subject of another assay is RSV strain A2. As to the kind of experiment: microbe, parasite or virus in culture. The settings on record: Table 3, HEp-2 cells, RSV A2, 4 days, read-out: RSV HEp-2 EC50. The essentials:
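Cytopathic-effect protection assay: HEp-2 cells (50,000/mL) infected with pre-titered RSV A2 onto 3-fold serial compound dilutions, incubated 4 days at 37° C. Cell viability read by CellTiter-Glo luminescence; percent inhibition derived against 0% and 100% virus-inhibition controls.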

The next assay concerns RSV A2. Put plainly: RSV NHBE EC50 (RSV A2 antiviral assay in NHBE cells). The settings on record: Table 3, NHBE cells, RSV A2, 4 days, read-out: RSV NHBE EC50. The essentials: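 Luminescent ATP-based viability was recorded in RSV A2-infected normal human bronchial epithelial cells exposed to serially diluted compound (3-fold steps, 0.05% DMSO). Infection used 1×10^4.5 TCID/mL, with a 4-day incubation at 37° C.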

Setting [1] is: Dengue virus, DENV2, Huh-7, 48 h, read-out: DENV-2 REP Huh7 EC50.
The mark [2] stands for this setting: 96 h, Table 3; H1-HeLa cells, 96 h; read-out: HRV16 HeLa EC50.
The mark [3] stands for this setting: human respiratory syncytial virus, HEp-2, 96 h.
[4] abbreviates: human respiratory syncytial virus, NHBE, 96 h.
Where [5] appears, read: Table 3, Huh-7 DENV2 replicon cells, 48 hours, read-out: DENV-2 REP Huh7 EC50.
Setting [6] is: Table 3; H1-HeLa cells, 96 h; read-out: HRV16 HeLa EC50.
Where [7] appears, read: Dengue virus, DENV2, Huh-7, 48 h, read-out: DENV-2 REP Huh7 EC50, Table 3, Huh-7 DENV2 replicon cells, 48 hours.

`CCC(=O)O[C@H]1[C@H](c2ccc3c(N)ncnn23)O[C@](C#N)(COP(=O)(N[C@@H](C)C(=O)OC2COC2)Oc2ccccc2)[C@H]1OC(=O)CC` (mixture of isomers) [Example 174, (2R,3S,4S,5S)-5-(4-aminopyrrolo[2,1-f][1,2,4]triazin-7-yl)-2-cyano-2-((((((S)-1-(oxetan-3-yloxy)-1-oxopropan-2-yl)amino)(phenoxy)phosphoryl)oxy)methyl) tetrahydrofuran-3,4-diyl dipropionate]: the EC50 stood at 8310 nM with DENV2 replicon (setting [1]), 97 nM in the assay on HRV16 (setting [2]), 100 nM with RSV strain A2 (setting [3]) and 20 nM in the assay on RSV A2 (setting [4]).
Regarding `CCCOC(=O)[C@H](C)NP(=O)(OC[C@@]1(C#N)O[C@@H](c2ccc3c(N)ncnn23)[C@H](OC(=O)CC)[C@@H]1OC(=O)CC)Oc1ccccc1` (mixture of isomers) [Example 187], the EC50 worked out at 5930 nM with DENV2 replicon (setting [1]), 88 nM in the assay with HRV16 (setting [2]), 24 nM with RSV strain A2 (setting [3]) and 17 nM with RSV A2 (setting [4]).
With `COC(=O)[C@H](C)N[P@@](=O)(OC[C@@]1(C#N)O[C@@H](c2ccc3c(N)ncnn23)[C@H](OC(C)=O)[C@@H]1OC(C)=O)Oc1ccccc1` (single isomer, unassigned) [Example 130], the EC50 with DENV2 replicon (setting [1]) worked out at 21000 nM; in the assay on HRV16 (setting [2]) it was 1780 nM; in the assay with RSV strain A2 (setting [3]), 198 nM; in the assay with RSV A2 (setting [4]), 59 nM.
The corresponding values for `COC(=O)[C@H](C)N[P@](=O)(OC[C@@]1(C#N)O[C@@H](c2ccc3c(N)ncnn23)[C@H](OC(C)=O)[C@@H]1OC(C)=O)Oc1ccccc1` (single isomer, unassigned) [Example 131] are 19200 nM, 782 nM, 103 nM and 47 nM.
As for `COC(=O)[C@H](C)N[P@@](=O)(OC[C@@]1(C#N)O[C@@H](c2ccc3c(N)ncnn23)[C@H](OC(=O)C(C)C)[C@@H]1OC(=O)C(C)C)Oc1ccccc1` (single isomer, unassigned) [Example 139], the EC50 was 5240 nM in the assay with DENV2 replicon (setting [1]), 97 nM with HRV16 (setting [2]), 39 nM in the assay on RSV strain A2 (setting [3]) and 8 nM in the assay on RSV A2 (setting [4]).
Consider `CCC(=O)O[C@H]1[C@H](c2ccc3c(N)ncnn23)O[C@](C#N)(CO[P@](=O)(N[C@@H](C)C(=O)OC)Oc2ccccc2)[C@H]1OC(=O)CC` (single isomer, unassigned) [Example 142], for which the EC50 with DENV2 replicon (setting [1]) turned out to be 11100 nM; in the assay on HRV16 (setting [2]), 352 nM; with RSV strain A2 (setting [3]), 93 nM; in the assay with RSV A2 (setting [4]), 16 nM.
For `CC(=O)O[C@H]1[C@H](c2ccc3c(N)ncnn23)O[C@](C#N)(COP(=O)(N[C@@H](C)C(=O)OC2CCOCC2)Oc2ccccc2)[C@H]1OC(C)=O` (single isomer, unassigned) [Example 165], the EC50 was above 99700 nM in the assay on DENV2 replicon (setting [5]), 1910 nM with HRV16 (setting [6]), 405 nM in the assay with RSV strain A2 and 165 nM with RSV A2.
For the compound `C[C@H](NP(=O)(OC[C@@]1(C#N)O[C@@H](c2ccc3c(N)ncnn23)[C@H](OC(=O)C(C)(C)C)[C@@H]1OC(=O)C(C)(C)C)Oc1ccccc1)C(=O)OC1CCOCC1` (single isomer, unassigned) [Example 173], the EC50 in the assay on DENV2 replicon (setting [5]) was 16100 nM; in the assay with HRV16 (setting [6]), 519 nM; in the assay on RSV strain A2, 256 nM; in the assay with RSV A2 it was 75 nM.
As to `CCC(=O)O[C@H]1[C@H](c2ccc3c(N)ncnn23)O[C@](C#N)(COP(=O)(N[C@@H](C)C(=O)OC2COC2)Oc2ccccc2)[C@H]1OC(=O)CC` (single isomer, unassigned) [Example 175], the EC50 in the assay on DENV2 replicon (setting [5]) stood at 9510 nM; in the assay with HRV16 (setting [6]), 85 nM; in the assay on RSV strain A2, 87 nM; in the assay on RSV A2 it was 17 nM.
`CCC(CC)COC(=O)[C@H](C)NP(=O)(N[C@@H](C)C(=O)OC1CCCCC1)OC[C@@]1(C#N)O[C@@H](c2ccc3c(N)ncnn23)[C@H](OC(C)=O)[C@@H]1OC(C)=O` (stereo partly drawn) [Example 113, (2R,3S,4S,5S)-5-(4-Aminopyrrolo[2,1-f][1,2,4]triazin-7-yl)-2-cyano-2-((((((S)-1-(cyclohexyloxy)-1-oxopropan-2-yl)amino)(((S)-1-(2-ethylbutoxy)-1-oxopropan-2-yl)amino)phosphoryl)oxy)methyl)tetrahydrofuran-3,4-diyl diacetate]: the EC50 with DENV2 replicon (setting [7]) is 31900 nM; with HRV16 (96 h, read-out: HRV16 HeLa EC50, Table 3; H1-HeLa cells, 96 h) it was 4680 nM; with RSV strain A2 (setting [3]), 1940 nM.
`CC(=O)O[C@H]1[C@H](c2ccc3c(N)ncnn23)O[C@](C#N)(CO[P@](=O)(N[C@@H](C)C(=O)OCC2CCN(CC(F)(F)F)CC2)Oc2ccccc2)[C@H]1OC(C)=O` [Example 120]: the EC50 worked out at 35200 nM in the assay on DENV2 replicon (setting [5]), 1140 nM with HRV16 (setting [6]) and 163 nM with RSV strain A2.
In the case of `CC(C)C(=O)O[C@H]1[C@H](c2ccc3c(N)ncnn23)O[C@](C#N)(COP(=O)(N[C@@H](C)C(=O)OC[C@H]2CC[C@H](N)CC2)Oc2ccccc2)[C@H]1OC(=O)C(C)C` (stereo partly drawn) [Example 207, (2R,3S,4S,5S)-2-((((((S)-1-(((1r,4S)-4-aminocyclohexyl)methoxy)-1-oxopropan-2-yl)amino)(phenoxy)phosphoryl)oxy)methyl)-5-(4-aminopyrrolo[2,1-f][1,2,4]triazin-7-yl)-2-cyanotetrahydrofuran-3,4-diyl bis(2-methylpropanoate)], the EC50 in the assay with DENV2 replicon (setting [1]) was above 37500 nM; with RSV strain A2 (setting [3]), 1080 nM; in the assay on RSV A2 (setting [4]) it was 149 nM.
`CC(C)OC(=O)[C@H](C)NP(=O)(OCCS(C)(=O)=O)OC[C@@]1(C#N)O[C@@H](c2ccc3c(N)ncnn23)[C@H](OC(=O)C(C)C)[C@@H]1OC(=O)C(C)C` (stereo partly drawn) [Example 210, (2R,3S,4S,5S)-5-(4-aminopyrrolo[2,1-f][1,2,4]triazin-7-yl)-2-cyano-2-((((((S)-1-isopropoxy-1-oxopropan-2-yl)amino)(2-(methylsulfonyl)ethoxy)phosphoryl)oxy)methyl)tetrahydrofuran-3,4-diyl bis(2-methylpropanoate)]: the EC50 is above 35400 nM in the assay on DENV2 replicon (setting [7]), 36300 nM in the assay on RSV strain A2 (setting [3]) and 3420 nM in the assay on RSV A2 (setting [4]).
Take `CC(C)C(=O)O[C@H]1[C@H](c2ccc3c(N)ncnn23)O[C@](C#N)(COP(=O)(N[C@@H](C)C(=O)OC2CCCC2)Oc2ccccc2)[C@H]1OC(=O)C(C)C` (stereo partly drawn) [Example 254, (2R,3S,4S,5S)-5-(4-aminopyrrolo[2,1-f][1,2,4]triazin-7-yl)-2-cyano-2-((((((S)-1-(cyclopentyloxy)-1-oxopropan-2-yl)amino)(phenoxy)phosphoryl)oxy)methyl) tetrahydrofuran-3,4-diyl bis(2-methylpropanoate)]: the EC50 in the assay with DENV2 replicon (setting [1]) came to 29400 nM; in the assay on RSV strain A2 (setting [3]), 36 nM; with RSV A2 (setting [4]), 24 nM.
In the same order, the values of `CC(C)C(=O)O[C@H]1[C@H](c2ccc3c(N)ncnn23)O[C@](C#N)(COP(=O)(N[C@@H](C)C(=O)OC2CC2)Oc2ccccc2)[C@H]1OC(=O)C(C)C` (stereo partly drawn) [Example 255, (2R,3S,4S,5S)-5-(4-aminopyrrolo[2,1-f][1,2,4]triazin-7-yl)-2-cyano-2-((((((S)-1-cyclopropoxy-1-oxopropan-2-yl)amino)(phenoxy)phosphoryl)oxy)methyl) tetrahydrofuran-3,4-diyl bis(2-methylpropanoate)] are 2910 nM, 38 nM and 18 nM.
In the case of `COC(=O)[C@H](C)N[P@](=O)(OC[C@@]1(C#N)O[C@@H](c2ccc3c(/N=C/N(C)C)ncnn23)[C@H](OC(=O)C(C)C)[C@@H]1OC(=O)C(C)C)Oc1ccccc1` [Example 260, (2R,3S,4S,5S)-2-Cyano-5-(4-(((E)-(dimethylamino)methylene)amino)pyrrolo[2,1-f][1,2,4]triazin-7-yl)-2-((((S)-(((S)-1-methoxy-1-oxopropan-2-yl)amino)(phenoxy)phosphoryl)oxy)methyl) tetrahydrofuran-3,4-diyl bis(2-methylpropanoate)], the EC50 in the assay with DENV2 replicon (setting [1]) was found to be 2800 nM; with RSV strain A2 (setting [3]) it was 41 nM; in the assay with RSV A2 (setting [4]), 12 nM.
